From patent publication US10570179B2, “Substituted urea depsipeptide analogs as activators of the CLPP endopeptidase” (priority 2016, dated 2020)
Converted amounts (≈) assume the structure as drawn. Read-outs that look alike come from different tables or passages of the source. Numbered stars: 1 amine (or outer) side, 2 acyl side, 3 side chain; on linkers, the order of the positions; unused ones are H or OH. Bridge positions count the residues as written; N and C are the ends. Square brackets hold non-standard residues; d marks the D form. Peptide text beside a SMILES is read from it. * marks the point of attachment. Morpholine(3S-CO) = O=C(O)[C@@H]1COCCN1; Phe(3-Me) = Cc1cccc(C[C@H](N)C(=O)O)c1; Pro(4S-Me) = C[C@@H]1CN[C@H](C(=O)O)C1; Pro(4R-Me) = C[C@H]1CN[C@H](C(=O)O)C1; Hyp = O=C(O)[C@@H]1C[C@@H](O)CN1; NH(3-Cl-phenyl) = Clc1cccc(N*)c1; NH(4-Cl-phenyl) = Clc1ccc(N*)cc1; aThr = C[C@H](O)[C@H](N)C(=O)O; Pip = O=C(O)[C@@H]1CCCCN1; CO = O=C([*:1])[*:2]; X2 = Fc1cc(N*)ccc1Cl

Columns and labels:
S. aureus ΔClpP = assay: Minimal inhibitory concentration, microbroth dilution; format: cell-based, Staphylococcus aureus; conditions: MIC; ClpP inactivated
Protocol: (§1) Minimal inhibitory concentrations (“MICs”) were determined using the microbroth dilution method according to Clinical Laboratory Standards Institute (CLSI; National, C.F. C. L. S., Methods for Dilution Antimicrobial Susceptibility Tests for Bacteria Grow aerobically-Seventh Edition: Approved Standard M7-A7, CLSI, Wayne, Pa., USA, 2008) and were read by visual inspection. Two fold serial dilutions of test compound in 100 μL of the appropriate broth media were first prepared in 96-well round bottom microtiter plates (Nalgene Nunc International, Rochester, N.Y., USA). An equivalent volume (100 μL) of bacterial broth inocula containing approximately 10^5 bacterial cfu/mL was added to each well to give final concentrations of test compound starting at 200 μM. The plates were then incubated aerobically at 37° C. All strains were incubated overnight. After incubations, in all cases the MIC was recorded as the lowest concentration of drug that prevented bacterial growth. The bacterial strains for which MIC was determined as described in Table 4.

S. aureus ClpP (Sa-ClpP) = target: T1, S. aureus ClpP (Sa-ClpP) (Staphylococcus aureus, UniProt Q2G036); assay: Casein-BODIPY digestion assay (ClpP activation); format: biochemical
T1 construct: made in house; host or cells: E. coli BL21 (DE3)
Protocol: The compounds were assayed in a casein digestion assay in order to determine their effect on ClpP activation. Briefly, the assay was carried out using S. aureus ClpP (“Sa-ClpP”) overexpressed in E. coli BL21 (DE3) and purified in a two-step process. Purity of the protein was assessed through SDS PAGE analysis. EC50 evaluations were conducted in triplicate in a 20 μl assay format using a method adapted from Maurizi et al. (Methods Enzymol. (1994) 244:314-331). Each well contained 10 μM saClpP, 25 μg/ml BODIPY FL casein (Invitrogen Corporation, San Diego, Calif.), and test compound in concentrations ranging between 0-1000 μM in assay buffer (50 mM Tris pH 8, 200 mM KCl, and 1 mM TCEP). The reaction took place at 37° C. Fluorescence (excitation 485 nm; emission 528 nm) was measured in five minute intervals over a 45 min period using a BioTek HT fluorescence microplate reader (BioTek Instruments, Inc., Winooski, Vt.). Velocity of each reaction was calculated and data was fit to a dose response curve using GraphPad Prism® software (GraphPad Software, Inc., La Jolla, Calif.). EC50 is the effective concentration of compound which causes 50% activation of S. aureus ClpP in the foregoing BODIPY FL casein assay.
Alternatively, the assay was carried out using EnzCheck Protease Assay (Molecular Probes, Catalog # E6638). The assay was performed in black 384 well, flat bottom, low volume plates (Greiner Bio-One, Monroe, N.C., catalog #784076). 10 μL of Tris.HCl buffer, pH 8.0 with 0.01% Triton X-100 was pipetted into each well using a Well-Mate (Thermo Scientific, Waltham, Mass.). 0.4 μL test compounds or controls (2% DMSO v/v) were added to each well using a Biomek FX liquid handling robot (Beckman Coulter, Indianapolis, Ind.). After addition of test compounds and controls, 10 μL of master mix containing 2 μM Sa-ClpP and 2 μM substrate (Bodipy-FL labeled casein) in Tris.HCl buffer, pH 8.0 with 0.01% (v/v) Triton X-100, was pipetted into each well. All assays were performed in triplicate, under linear velocity conditions. Increase in fluorescent signal following activation of Sa-ClpP by test compounds and controls was measured over time period of 30 mins using filters with excitation at 485±15 nm and emission at 520±25 nm on a PHERAstar FS Multilabel reader (BMG, Cary, N.C.). Instrument gains and enzyme linear velocity conditions were determined and validated using ADEP4, a known Sa-ClpP activator. Data analysis was done by measuring rate of casein degradation over time (slopes). Computed degradation rates (slopes) were normalized to positive (ADEP4) or negative (DMSO) controls. Using nonlinear regression curve fitting EC50 values and % activation were determined using the equation “log [agonist] vs. Response-variable slope (four parameters)-symmetrical” in the program Prism 6 (GraphPad Software, La Jolla, Calif. USA, www.graphpad.com).

S. aureus USA 300 = assay: Minimal inhibitory concentration, microbroth dilution; format: cell-based; conditions: Staphylococcus aureus
Protocol: as §1

S. aureus ATCC 29213 = assay: as above; format: cell-based; conditions: Staphylococcus aureus
Protocol: as §1

E. faecails = assay: as above; format: cell-based; conditions: Enterococcus faecalis
Protocol: as §1

MRSA NRS70 = assay: as above; format: cell-based; conditions: Staphylococcus aureus
Protocol: as §1

[1] = USA300, read-out: Minimal Inhibitory Concentrations (μM) S. aureus USA 300, MIC
[2] = ATCC29213, read-out: Minimal Inhibitory Concentrations (μM) S. aureus ATCC 29213, MIC
[3] = read-out: Minimal Inhibitory Concentrations (μM) E. faecails, MIC
[4] = read-out: Minimal Inhibitory Concentrations (μM) MRSA NRS70, MIC
[5] = USA300, MIC, read-out: Minimal Inhibitory Concentrations (μM) S. aureus USA 300
[6] = ATCC29213, MIC, read-out: Minimal Inhibitory Concentrations (μM) S. aureus ATCC 29213
[7] = MIC, read-out: Minimal Inhibitory Concentrations (μM) E. faecails
[8] = MIC, read-out: Minimal Inhibitory Concentrations (μM) MRSA NRS70

T1 sequence (Q2G036 whole entry): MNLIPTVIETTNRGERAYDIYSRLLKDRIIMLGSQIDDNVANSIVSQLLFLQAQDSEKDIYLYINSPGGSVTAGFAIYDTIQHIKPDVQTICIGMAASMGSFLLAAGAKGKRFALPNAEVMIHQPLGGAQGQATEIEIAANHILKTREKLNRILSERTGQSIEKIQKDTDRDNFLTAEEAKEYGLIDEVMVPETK

Structure (SMILES)	Minimal Inhibitory Concentrations (μM) S. aureus ΔClpP (S. aureus ΔClpP) [µM]	EC50 (S. aureus ClpP (Sa-ClpP)) [nM]	MIC (S. aureus USA 300; [1]) [µM]	MIC (S. aureus ATCC 29213; [2]) [µM]	MIC (E. faecails; [3]) [µM]	MIC (MRSA NRS70; [4]) [µM]	MIC (S. aureus USA 300; [5]) [µM]	MIC (S. aureus ATCC 29213; [6]) [µM]	MIC (E. faecails; [7]) [µM]	MIC (MRSA NRS70; [8]) [µM]
Cc1cccc(C[C@H](NC(=O)Nc2ccc(Cl)cc2)C(=O)N[C@@H]2C(=O)N3CCC[C@H]3C(=O)N3CCCC[C@H]3C(=O)N[C@@H](C)C(=O)N3C[C@H](C)C[C@H]3C(=O)O[C@H]2C)c1 [Compound 63, (S)-2-(3-(4-CHLOROPHENYL)UREIDO)-3-(M-TOLYL)-N-((2R,6S,8AS,14AS,20S,21S,23AS)-2,6,21-TRIMETHYL-5,8,14,19,23-PENTAOXOOCTADECAHYDRO-1H,5H,14H,19H-PYRIDO[2,1-I]DIPYRROLO[2,1-C:2′,1′-L][1]OXA[4,7,10,13]TETRAAZACYCLOHEXADECIN-20-YL)PROPANAMIDE] ({NH(4-Cl-phenyl)-CO}-[Phe(3-Me)][aThr]P[Pip]A[Pro(4R-Me)]; ester 2-C)	>20	400 ± 200	0.313 (≈ 0.252 µg/mL)	0.625 (≈ 0.504 µg/mL)	0.313 (≈ 0.252 µg/mL)	0.313 (≈ 0.252 µg/mL)				
CCc1ccc(NC(=O)N[C@@H](Cc2cccc(C)c2)C(=O)N[C@H]2COC(=O)[C@@H]3CCCN3C(=O)[C@H](C)NC(=O)[C@@H]3CCCCN3C(=O)[C@@H]3C[C@@H](O)CN3C2=O)cc1 [Compound 55, (S)-2-(3-(4-ETHYLPHENYL)UREIDO)-N-((6S,8AS,14AS,16R,20S,23AS)-16-HYDROXY-6-METHYL-5,8,14,19,23-PENTAOXOOCTADECAHYDRO-1H,5H,14H,19H-PYRIDO[2,1-I]DIPYRROLO[2,1-C:2′,1′-L][1]OXA[4,7,10,13]TETRAAZACYCLOHEXADECIN-20-YL)-3-(M-TOLYL)PROPANAMIDE]	>20	1050 ± 1000					2.5 (≈ 1.97 µg/mL)	5 (≈ 3.94 µg/mL)	2.5 (≈ 1.97 µg/mL)	2.5 (≈ 1.97 µg/mL)
Cc1cccc(C[C@H](NC(=O)Nc2cccc(Cl)c2)C(=O)N[C@@H]2C(=O)N3C[C@H](O)C[C@H]3C(=O)N3CCOC[C@H]3C(=O)N[C@@H](C)C(=O)N3C[C@H](C)C[C@H]3C(=O)O[C@H]2C)c1 [Compound 74, (S)-2-(3-(3-CHLOROPHENYL)UREIDO)-N-((6AS,8R,12S,13S,15AS,17R,21S,23AS)-8-HYDROXY-13,17,21-TRIMETHYL-6,11,15,20,23-PENTAOXOOCTADECAHYDRO-6H,11H,15H-[1,4]OXAZINO[3,4-I]DIPYRROLO[2,1-C:2′,1′-L][1]OXA[4,7,10,13]TETRAAZACYCLOHEXADECIN-12-YL)-3-(M-TOLYL)PROPANAMIDE] ({NH(3-Cl-phenyl)-CO}-[Phe(3-Me)][aThr][Hyp][Morpholine(3S-CO)]A[Pro(4R-Me)]; ester 2-C)	>20	250 ± 100	1.25 (≈ 1.03 µg/mL)	5 (≈ 4.12 µg/mL)	> 20	5 (≈ 4.12 µg/mL)				
Cc1cccc(C[C@H](NC(=O)Nc2ccc(Cl)c(F)c2)C(=O)N[C@@H]2C(=O)N3C[C@H](O)C[C@H]3C(=O)N3CCCC[C@H]3C(=O)N[C@@H](C)C(=O)N3C[C@@H](C)C[C@H]3C(=O)O[C@H]2C)c1 [Compound 77, (S)-2-(3-(4-CHLORO-3-FLUOROPHENYL)UREIDO)-N-((2S,6S,8AS,14AS,16R,20S,21S,23AS)-16-HYDROXY-2,6,21-TRIMETHYL-5,8,14,19,23-PENTAOXOOCTADECAHYDRO-1H,5H,14H,19H-PYRIDO[2,1-I]DIPYRROLO[2,1-C:2′,1′-L][1]OXA[4,7,10,13]TETRAAZACYCLOHEXADECIN-20-YL)-3-(M-TOLYL)PROPANAMIDE] ({X2-CO}-[Phe(3-Me)][aThr][Hyp][Pip]A[Pro(4S-Me)]; ester 2-C)	5	450 ± 200					1.25 (≈ 1.05 µg/mL)	0.625 (≈ 0.525 µg/mL)	1.25 (≈ 1.05 µg/mL)	0.625 (≈ 0.525 µg/mL)
Cc1cccc(C[C@H](NC(=O)Nc2ccc(Cl)cc2)C(=O)N[C@@H]2C(=O)N3C[C@H](O)C[C@H]3C(=O)N3CCCC[C@H]3C(=O)N[C@@H](C)C(=O)N3C[C@@H](C)C[C@H]3C(=O)O[C@H]2C)c1 [Compound 66, (S)-2-(3-(4-CHLOROPHENYL)UREIDO)-N-((2S,6S,8AS,14AS,16R,20S,21S,23AS)-16-HYDROXY-2,6,21-TRIMETHYL-5,8,14,19,23-PENTAOXOOCTADECAHYDRO-1H,5H,14H,19H-PYRIDO[2,1-I]DIPYRROLO[2,1-C:2′,1′-L][1]OXA[4,7,10,13]TETRAAZACYCLOHEXADECIN-20-YL)-3-(M-TOLYL)PROPANAMIDE] ({NH(4-Cl-phenyl)-CO}-[Phe(3-Me)][aThr][Hyp][Pip]A[Pro(4S-Me)]; ester 2-C)	>20	160 ± 100	0.313 (≈ 0.257 µg/mL)	0.625 (≈ 0.514 µg/mL)	1.25 (≈ 1.03 µg/mL)	1.25 (≈ 1.03 µg/mL)				
Cc1cccc(C[C@H](NC(=O)Nc2cccc(Cl)c2)C(=O)N[C@@H]2C(=O)N3CCC[C@H]3C(=O)N3CCCC[C@H]3C(=O)N[C@@H](C)C(=O)N3C[C@H](C)C[C@H]3C(=O)O[C@H]2C)c1 [Compound 64, (S)-2-(3-(3-CHLOROPHENYL)UREIDO)-3-(M-TOLYL)-N-((2R,6S,8AS,14AS,20S,21S,23AS)-2,6,21-TRIMETHYL-5,8,14,19,23-PENTAOXOOCTADECAHYDRO-1H,5H,14H,19H-PYRIDO[2,1-I]DIPYRROLO[2,1-C:2′,1′-L][1]OXA[4,7,10,13]TETRAAZACYCLOHEXADECIN-20-YL)PROPANAMIDE] ({NH(3-Cl-phenyl)-CO}-[Phe(3-Me)][aThr]P[Pip]A[Pro(4R-Me)]; ester 2-C)	>20	430 ± 200	1.25 (≈ 1.01 µg/mL)	0.625 (≈ 0.504 µg/mL)	10 (≈ 8.06 µg/mL)	0.625 (≈ 0.504 µg/mL)				
CCc1ccc(NC(=O)N[C@@H](Cc2cccc(C)c2)C(=O)N[C@H]2COC(=O)[C@@H]3C[C@H](C)CN3C(=O)[C@H](C)NC(=O)[C@@H]3CCCCN3C(=O)[C@@H]3CCCN3C2=O)cc1 [Compound 52, (S)—N-((2S,6S,8AS,14AS,20S,23AS)-2,6-DIMETHYL-5,8,14,19,23-PENTAOXOOCTADECAHYDRO-1H,5H,14H,19H-PYRIDO[2,1-I]DIPYRROLO[2,1-C:2′,1′-L][1]OXA[4,7,10,13]TETRAAZACYCLOHEXADECIN-20-YL)-2-(3-(4-ETHYLPHENYL)UREIDO)-3-(M-TOLYL)PROPANAMIDE]	>20	220 ± 100					0.625 (≈ 0.491 µg/mL)	0.625 (≈ 0.491 µg/mL)	0.313 (≈ 0.246 µg/mL)	0.313 (≈ 0.246 µg/mL)
